The values below come from patent US20110206650A1, “Probiotic Formulations” (BRACCO IMAGING S.P.A., priority 2008, published 2011).

Data set [1] relates to Staphylococcus epidermidis. As to conditions: Ref. 22; cited from earlier work.
The nature of data set [2]: acute oral semilethal dose (LD50) in mice. Conditions: mouse, in vivo. The source says: Thus, DTPA is a safe oral drug, representing a preferred iron chelator for the compositions of the present invention.
It is therefore a further preferred iron chelator for the compositions of the invention.

The subject of the next data set is mice. Conditions: cited from earlier work.
Data set [3] has as its system Corynebacterium xerosis ATCC 7711. Conditions: Ref. 23; cited from earlier work.
The conditions of data set [4]: in vivo; cited from earlier work.

SMILES strings stand for the structures.

For the molecule `O=C(O)CN(CC(=O)O)[C@@H]1CCCC[C@H]1N(CC(=O)O)CC(=O)O` (relative stereo) [CDTA, trans-1,2-diaminocyclohexane-N,N,N′,N′-tetraacetic acid], the “inhibition of growth of Staphylococcus epidermidis” value in data set [1] is reported as “inhibit the growth”.

As to `O=C(O)CN(CCN(CC(=O)O)CC(=O)O)CCN(CC(=O)O)C(COCc1ccccc1)C(=O)O` (centres unmarked) [BOPTA, 4-carboxy-5,8,11-tris(carboxymethyl)-1-phenyl-2-oxa-5,8,11-triazatridecan-13-oic acid], the 50% lethal dose (LD50) – broadly, the dose expected to kill half of the subjects tested – in data set [2] is 8400 µmol/kg.

With `O=C(O)CN(CCN(CC(=O)O)CC(=O)O)CCN(CC(=O)O)CC(=O)O` [DTPA, diethylenetriaminepentaacetic acid], the “acute oral semilethal dose (LD50)” value with mice is 3500 mg/kg. Moreover, in data set [1], the “inhibition of growth of Staphylococcus epidermidis” value is given as “inhibit the growth”.

On to `O=C(O)CN(CCN(CC(=O)O)CC(=O)O)CC(=O)O` [EDTA, ethylenediaminetetraacetic acid], for which the “inhibition of growth of Staphylococcus epidermidis” value in data set [1] was “inhibit the growth”.

In the case of `O=C(O)C[C@H](NCCN[C@@H](CC(=O)O)C(=O)O)C(=O)O` [R,S-EDDS, R,S-ethylenediaminedisuccinic acid], the “inhibition of growth of Corynebacterium xerosis ATCC 7711” value in data set [3] was “inhibit growth”.

With `O=C(O)CN(CCN(CCN(CC(=O)O)CC(=O)O)CC(=O)O)CCN(CC(=O)O)CC(=O)O` [TTHA, triethylene-tetraaminehexaacetic acid], the “inhibition of growth of Staphylococcus epidermidis” value in data set [1] was “inhibit the growth”.

Take `O=C([O-])CN(CCN(CC(=O)[O-])CC(=O)[O-])CCN(CC(=O)[O-])CC(=O)[O-].[H+].[H+].[Na+].[Na+].[Na+]` [trisodium pentetate]: the “safety of oral dose” value in data set [4] is recorded as “proven to be safe”.
